In patent US5145955A, “Process for the preparation and composition of a fraction containing picroside I and kutkoside” (Council of Scientific & Industrial Research, priority 1991, dated 1992):
Read-outs that look alike come from different tables or passages of the source.

What was measured:
isolated rat hepatocytes = type: cell-based; conditions: paracetamol-toxicated
Method: In the isolated hepatocyte preparation the, hepatoprotective activity was assessed against paracetamol, galactosamine carbon tetrachloride and thioacetamide induced damage.
The effect of cucurbitacin glucoside and F006 was also studied on paracetamol-toxicated isolated rat hepatocytes (ex vivo). At the doses of 0.5 and 1 mg/kg po×7.

[1] = tested on: liver and serum biochemical parameters; test: Protection against altered liver and serum biochemical parameters (toxicant not given); type: in vivo
[2] = tested on: thioacetamide induced hepatic damage (liver); test: Protection against thioacetamide induced biochemical changes in liver in rat; type: in vivo
Method: Although cucurbitacin glucoside (III) was a known compound, its biological activity is reported here for the first time. […] At higher dose (1 mg/kg) also, it reversed the decrease in levels of DNA (56%), RNA (100%) and glycogen (36%).

cholestasis = test: Anticholestatic effect against induced cholestasis; type: in vivo; conditions: paracetamol induced; 0.5 and 1 mg/kg po × 7
[3] = tested on: Plasmodium berghei infection in mastomys; test: Hepatoprotective activity against Plasmodium berghei infection-induced hepatic damage; type: in vivo; conditions: 1 mg/kg po × 15 days
[4] = tested on: bile flow (choleretic effect); test: Choleretic effect of cucurbitacin glucoside and F006 (bile volume and bile contents); type: in vivo
[5] = dose not given, range given for both agents

CC(=O)OC(C)(C)C=CC(=O)C(C)(O)C1C(O)CC2(C)C3CC=C4C(CC(O[C@@H]5O[C@H](CO)[C@@H](O)[C@H](O)[C@H]5O)C(O)C4(C)C)C3(C)CCC12C (stereo partly drawn) [Cucurbitacin glucoside, 25-acetoxy-2β-D-glucopyranoxy-3,16,20-trihydroxy-9-methyl-19-norlanosta-5,23-diene-22-one]
protection by Trypan blue exclusion test (cell viability) (isolated rat hepatocytes; 0.5 mg/kg po × 7): 97.4%
rate of oxygen consumption / oxygen uptake test (isolated rat hepatocytes; 0.5 mg/kg po × 7): 100%
protection by Trypan blue exclusion test (cell viability) (isolated rat hepatocytes; 1 mg/kg po × 7): 100%
rate of oxygen consumption / oxygen uptake test (isolated rat hepatocytes; 1 mg/kg po × 7): 100%
activity of cytochrome P450 ([1]; 1 mg/kg): significantly restored
activity of γ-glutamyl transpeptidase ([1]; 1 mg/kg): significantly restored
level of DNA ([1]; 1 mg/kg): significant reversal
level of RNA ([1]; 1 mg/kg): significant reversal
level of glycogen ([1]; 1 mg/kg): significant reversal
serum level of GOT ([1]; 1 mg/kg): restored almost completely towards normal
serum level of GPT ([1]; 1 mg/kg): restored almost completely towards normal
level of bilirubin in serum ([1]; dose not given): recovered
level of protein in serum ([1]; dose not given): recovered
protection, level of phospholipids ([1]; dose not given): significant protection
protection, 5'-nucleotidase activity [1, 5]: 46-56%
protection, acid ribonuclease activity [1, 5]: 48-96%
protection, glucose-6-phosphatase activity [1, 5]: 46-61%
protection, level of DNA [1, 5]: 55-78%
protection, level of protein [1, 5]: 96-100%
recovery of increased level of total lipids [1, 5]: 44-55%
toxicant-induced decrease in activity of succinate dehydrogenase ([2]; higher dose (1 mg/kg)): reversed significantly
toxicant-induced increase in activity of acid ribonuclease ([2]; higher dose (1 mg/kg)): reversed significantly
protection against decrease in DNA level in liver ([2]; thioacetamide, 0.48 mg/kg): 94%
protection against decrease in RNA level in liver ([2]; thioacetamide, 0.48 mg/kg): 95%
protection against decrease in glycogen level in liver ([2]; thioacetamide, 0.48 mg/kg): 60%
reversal of decrease in DNA level ([2]; thioacetamide, 1 mg/kg): 56%
reversal of decrease in RNA level ([2]; thioacetamide, 1 mg/kg): 100%
reversal of decrease in glycogen level ([2]; thioacetamide, 1 mg/kg): 36%
reversal of decrease in bile acids (cholestasis): completely reversed
reversal of decrease in bile flow (cholestasis): completely reversed
reversal of decrease in bile salts (cholestasis): completely reversed
protection against hepatic damage (biochemical parameters in serum and liver) [3]: marked protection
increase in bile salts ([4]; 0.5 mg/kg): 40%
increase in cholic acid ([4]; 0.5 mg/kg): 38.5%
increase in deoxycholic acid ([4]; 0.5 mg/kg): 47.6%
increase in volume of bile / bile flow ([4]; 0.5 mg/kg): 38%
increase in bile salts ([4]; 1 mg/kg): 100%
increase in cholic acid ([4]; 1 mg/kg): 100%
increase in deoxycholic acid ([4]; 1 mg/kg): 100%
increase in volume of bile / bile flow ([4]; 1 mg/kg): 90%
